The results in this text go back to patent US12427146B2, “C-terminal SRC kinase inhibitors” (INVENTISBIO CO., LTD., priority 2018, dated 2025).

Assay [1] has as its target CSK protein (Homo sapiens (Human), UniProt P41240). Briefly: CSK Inhibition Assay. It is filed as biochemical. The method, then: Test compound was dissolved in DMSO at 10 mM. 45 uL of compound was transferred into a 384-well compound source plate (LABCYTE cat #P-05525) and serially diluted at 1:3 ratio to create a 11-point dilutions. The same volume of DMSO was adopted as high control. 20 nL of these compounds DMSO dilutes were dispensed into a new 384-well assay plate by Echo 550. […] 15 uL of kinase assay buffer containing CSK protein and substrate was transferred to assay plate and incubated at RT for 30 minutes. Kinase assay buffer supplemented with substrate peptides was employed as low control to monitor the background. 4 μM of ATP was prepared in kinase assay buffer and 5 μL of ATP solution was added to each well to start the reaction. The assay plate was incubated at 25° C. for 90 minutes and the reaction was stopped by adding 40 μL of 0.5 M EDTA.
(§1) Phosphorylated fluorescent-tagged peptides were differentiated from non-phosphorylated peptides by separating using Caliper EZ Reader II and the detection was directly converted to conversion ratio.
(§2) For estimation of IC50, the % substrate conversion values are transformed to % Inhibition Ratio by applying the following equation: […]

The target of assay [2] is LCK protein (Homo sapiens (Human), UniProt P06239). Put plainly: LCK Inhibition Assay. Type of assay: biochemical. The method, then:
Test compound was dissolved in DMSO at 10 mM. 45 uL of compound was transfer into a 384-well compound source plate (LABCYTE cat #P-05525) and serially diluted at 1:3 ratio to create a 11-point dilutions. The same volume of DMSO was adopted as high control. 20 nL of these compounds DMSO dilutes were dispensed into a new 384-well assay plate by Echo 550. LCK protein (0.50 nM, Cama Biosciences, cat #08-170), florescent labeled substrate FLPeptide4 (2 μM, PerkinElmer, cat #760348) was prepared in kinase assay buffer (50 mM HEPES (pH 7.5), 10 mM MgCl2, 0.01% Brij-35, 2 mM DTT and 0.005 mg/ml BSA). 15 uL of kinase assay buffer containing LCK protein and substrate was transferred to assay plate and incubate at RT for 30 minutes. Kinase assay buffer supplemented with substrate peptides was employed as low control to monitor the background. 400 μM ATP was prepared in kinase assay buffer and 5 μL of ATP solution was added to each well to start the reaction. The assay plate was incubated at 25° C. for 90 minutes and the reaction was stopped by adding 40 μL of 0.5 M EDTA.
as §1, §2

A value given as a limit tells only on which side of the number the result lay.

CSK protein, sequence (P41240 whole entry): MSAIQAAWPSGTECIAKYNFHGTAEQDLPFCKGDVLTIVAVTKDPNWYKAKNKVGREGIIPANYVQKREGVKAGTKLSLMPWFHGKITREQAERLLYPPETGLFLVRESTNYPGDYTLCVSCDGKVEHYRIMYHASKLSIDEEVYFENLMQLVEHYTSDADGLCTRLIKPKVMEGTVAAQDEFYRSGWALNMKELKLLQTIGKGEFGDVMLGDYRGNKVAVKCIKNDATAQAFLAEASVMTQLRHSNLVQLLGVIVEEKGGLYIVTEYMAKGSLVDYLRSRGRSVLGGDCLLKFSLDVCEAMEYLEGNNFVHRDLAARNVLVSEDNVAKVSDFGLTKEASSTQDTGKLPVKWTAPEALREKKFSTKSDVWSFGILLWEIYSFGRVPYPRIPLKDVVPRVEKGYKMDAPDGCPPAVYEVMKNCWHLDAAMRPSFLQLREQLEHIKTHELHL
LCK protein, sequence (P06239 whole entry): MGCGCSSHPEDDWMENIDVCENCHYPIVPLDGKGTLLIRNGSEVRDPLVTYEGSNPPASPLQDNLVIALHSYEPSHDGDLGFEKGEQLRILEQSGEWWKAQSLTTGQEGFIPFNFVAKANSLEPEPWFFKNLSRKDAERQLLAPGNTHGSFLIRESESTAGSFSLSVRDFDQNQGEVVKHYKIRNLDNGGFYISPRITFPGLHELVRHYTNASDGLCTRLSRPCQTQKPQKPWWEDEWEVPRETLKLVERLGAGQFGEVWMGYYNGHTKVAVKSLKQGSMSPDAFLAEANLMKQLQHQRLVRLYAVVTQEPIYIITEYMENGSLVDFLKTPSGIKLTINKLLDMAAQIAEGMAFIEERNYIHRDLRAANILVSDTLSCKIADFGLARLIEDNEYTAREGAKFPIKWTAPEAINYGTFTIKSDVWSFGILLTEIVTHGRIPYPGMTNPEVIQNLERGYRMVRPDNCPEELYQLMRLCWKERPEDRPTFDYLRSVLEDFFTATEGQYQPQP

Turning to `Nc1nccc(-c2sc(-c3ccc(C(F)(F)F)cc3)nc2-c2cccc(NS(=O)(=O)c3c(F)cccc3F)c2F)n1` [Compound 4], the IC50 (as a rule, the concentration that inhibits the measured activity by half) in assay [1] was 328 nM; in assay [2] it was over 1000 nM. As for `COc1ccc(-c2nc(-c3cccc(NS(=O)(=O)c4c(F)cccc4F)c3F)c(-c3ccnc(N)n3)s2)cc1` [Compound 5], the IC50 is 62.7 nM in assay [1] and over 1000 nM in assay [2]. Consider `COc1cc(N2CCOCC2)ccc1Nc1nccc(-c2sc(-c3ccccc3)nc2-c2cccc(NS(=O)(=O)c3c(F)cccc3F)c2F)n1` [Compound 9], for which the values for the half-inhibitory concentration (IC50) in assay [1] and in assay [2] were 50.3 nM and over 1000 nM, respectively.

Consider `CCn1cc(-c2nc(-c3cccc(NS(=O)(=O)c4c(F)cccc4F)c3F)c(-c3ccnc(N)n3)s2)cn1` [Compound 10], for which the IC50 was 30.1 nM in assay [1] and 100 to 1000 nM in assay [2]. In the case of `Nc1nccc(-c2sc(-c3cncc(Cl)c3)nc2-c2cccc(NS(=O)(=O)c3c(F)cccc3F)c2F)n1` [Compound 11], the IC50 in assay [1] is 103 nM; in assay [2] it was over 1000 nM. `Nc1nccc(-c2sc(-c3ccc(F)cn3)nc2-c2cccc(NS(=O)(=O)c3c(F)cccc3F)c2F)n1` [Compound 12]: the IC50 in assay [1] is 61.6 nM; in assay [2], over 1000 nM. For the compound `Cc1ccc(-c2nc(-c3cccc(NS(=O)(=O)c4c(F)cccc4F)c3F)c(-c3ccnc(N)n3)s2)nn1` [Compound 13], the half-inhibitory concentration (IC50) in assay [1] was 51 nM; in assay [2] it was over 1000 nM. For `Nc1nccc(-c2sc(-c3ccc(F)cc3)nc2-c2cccc(NS(=O)(=O)c3c(F)cccc3F)c2F)n1` [Compound 14], the results for the 50% inhibitory concentration (IC50) in assay [1] and in assay [2] were 55.3 nM and over 1000 nM, respectively. On to `Nc1nccc(-c2sc(-c3cccc(F)c3)nc2-c2cccc(NS(=O)(=O)c3c(F)cccc3F)c2F)n1` [Compound 15], for which the IC50 in assay [1] was 51.4 nM; in assay [2] it was over 1000 nM. On to `COC(=O)N[C@@H](C)CNc1nccc(-c2sc(-c3ccccc3)nc2-c2cccc(NS(=O)(=O)c3c(F)cccc3F)c2F)n1` [Compound 16], for which the figures for the half-inhibitory concentration (IC50) in assay [1] and in assay [2] were 63.6 nM and over 1000 nM, respectively.

With `Nc1nccc(-c2sc(-c3cncc(F)c3)nc2-c2cccc(NS(=O)(=O)c3c(F)cccc3F)c2F)n1` [Compound 17], the IC50 in assay [1] was 25 nM; in assay [2] it was over 1000 nM.

`Nc1nccc(-c2sc(-c3ccccc3)nc2-c2cccc(NS(=O)(=O)c3c(F)cccc3F)c2)n1` [Compound 18]: the figures for the concentration for half-maximal inhibition (IC50) in assay [1] and in assay [2] were 144 nM and over 1000 nM, respectively. The matching figures for `COc1cc(NS(=O)(=O)c2c(F)cccc2F)cc(-c2nc(-c3ccccc3)sc2-c2ccnc(N)n2)c1` [Compound 19]: 28.2 nM and 100 to 1000 nM. For the compound `COc1cc(NS(=O)(=O)c2c(F)cccc2F)cc(-c2nc(-c3cncc(F)c3)sc2-c2ccnc(N)n2)c1` [Compound 21], the half-inhibitory concentration (IC50) in assay [2] lay within 100 to 1000 nM.

`Nc1nccc(-c2sc(-c3ccccc3)nc2-c2cccc(NS(=O)(=O)c3ccccc3)c2F)n1` [Compound 24]: the half-inhibitory concentration (IC50) in assay [1] was 501 nM; in assay [2] it was over 1000 nM. With `Nc1nccc(-c2sc(-c3ccccc3)nc2-c2cccc(NS(=O)(=O)c3c(F)cccc3F)n2)n1` [Compound 26], the half-maximal inhibitory concentration (IC50) in assay [1] was over 10000 nM. As to `Nc1nccc(-c2sc(-c3cncnc3)nc2-c2cccc(NS(=O)(=O)c3c(F)cccc3F)c2F)n1` [Compound 29], the 50% inhibitory concentration (IC50) in assay [1] was 20.5 nM; in assay [2], over 1000 nM. On to `COc1ccc(-c2nc(-c3cccc(NS(=O)(=O)c4c(F)cccc4F)c3F)c(-c3ccnc(N)n3)s2)nc1` [Compound 30], for which the IC50 is 41 nM in assay [1] and 100 to 1000 nM in assay [2]. The compound `O=S(=O)(Nc1cccc(-c2nc(-c3ccc(F)cn3)sc2-c2ccnc(NC3CCCC3)n2)c1F)c1c(F)cccc1F` [Compound 31] displayed a half-maximal inhibitory concentration (IC50) in assay [1] of over 10000 nM. As for `COc1ccc(Nc2nccc(-c3sc(-c4ccc(F)cn4)nc3-c3cccc(NS(=O)(=O)c4c(F)cccc4F)c3F)n2)cn1` [Compound 32], the half-inhibitory concentration (IC50) in assay [1] was 2.9 nM; in assay [2], 100 to 1000 nM. Turning to `COc1ccccc1Nc1nccc(-c2sc(-c3ccc(F)cn3)nc2-c2cccc(NS(=O)(=O)c3c(F)cccc3F)c2F)n1` [Compound 33], the IC50 in assay [1] is 595 nM; in assay [2], over 1000 nM. As to `Cc1cc(F)c(S(=O)(=O)Nc2cccc(-c3nc(-c4ccccc4)sc3-c3ccnc(N)n3)c2F)c(F)c1` [Compound 35], the results for the half-inhibitory concentration (IC50) in assay [1] and in assay [2] were 81.2 nM and over 1000 nM, respectively. Regarding `Cc1ccnc(-c2nc(-c3cccc(NS(=O)(=O)c4c(F)cccc4F)c3F)c(-c3ccnc(N)n3)s2)c1` [Compound 40], the IC50 was 48 nM in assay [1] and over 1000 nM in assay [2].

For `CC(=O)N[C@@H](C)CNc1nccc(-c2sc(-c3ccccc3)nc2-c2cccc(NS(=O)(=O)c3c(F)cccc3F)c2F)n1` [Compound 41], the results for the IC50 in assay [1] and in assay [2] were 87.3 nM and over 1000 nM, respectively.

With `O=S(=O)(Nc1cccc(-c2nc(-c3ccccc3)sc2-c2ccnc(Nc3cccnc3)n2)c1F)c1c(F)cccc1F` [Compound 42], the IC50 in assay [1] was 37.7 nM; in assay [2], 100 to 1000 nM. For `Cc1ccc(-c2nc(-c3cccc(NS(=O)(=O)c4c(F)cccc4F)c3F)c(-c3ccnc(N)n3)s2)nc1` [Compound 43], the IC50 in assay [1] is 37.6 nM; in assay [2], 100 to 1000 nM. For the compound `C[C@H](Nc1nccc(-c2sc(-c3ccccc3)nc2-c2cccc(NS(=O)(=O)c3c(F)cccc3F)c2F)n1)C(N)=O` [Compound 44], the figures for the IC50 in assay [1] and in assay [2] were 43.9 nM and over 1000 nM, respectively. Take `CNc1nccc(-c2sc(-c3ccccc3)nc2-c2cccc(NS(=O)(=O)c3c(F)cccc3F)c2F)n1` [Compound 46]: the IC50 in assay [1] was 27.3 nM; in assay [2], over 1000 nM. On to `C[C@@H](Nc1nccc(-c2sc(-c3ccccc3)nc2-c2cccc(NS(=O)(=O)c3c(F)cccc3F)c2F)n1)C(N)=O` [Compound 49], for which the 50% inhibitory concentration (IC50) in assay [1] stood at 345 nM. Compound `Cn1c(-c2ccccc2)nc(-c2ccnc(N)n2)c1-c1cccc(NS(=O)(=O)c2c(F)cccc2F)c1F` [Compound 86] gave an IC50 in assay [1] of 1220 nM. On to `Cn1c(-c2ccccc2)nc(-c2cccc(NS(=O)(=O)c3c(F)cccc3F)c2F)c1-c1ccnc(N)n1` [Compound 87], for which 947 nM corresponded to half-maximal inhibition in assay [1] (IC50). On to `CCn1c(-c2ccccc2)nc(-c2ccnc(N)n2)c1-c1cccc(NS(=O)(=O)c2c(F)cccc2F)c1F` [Compound 89], for which the IC50 in assay [1] was 321 nM. In assay [1], `COc1ccn2c(-c3ccnc(N)n3)c(-c3cccc(NS(=O)(=O)c4c(F)ccc(C)c4F)c3F)nc2c1` [Compound 99] had an IC50 of 105 nM. Turning to `CC(C)(C)c1nc(-c2cccc(NS(=O)(=O)c3c(F)cccc3F)c2F)c(-c2ccnc(N)n2)s1` [Dabrafenib, reference compound], in assay [1], the IC50 is about 50 nM. The “selectivity over LCK” value in assay [1] (CSK inhibition over LCK) was “about 10 fold”. With `Nc1nccc(-c2sc(-c3cccc(N4CCC4)n3)nc2-c2cccc(NS(=O)(=O)c3c(F)cccc3F)c2F)n1` [compound 1], the concentration for half-maximal inhibition (IC50) in assay [1] worked out at 1060 nM.

As for `O=S(=O)(Nc1cccc(-c2nc(-c3ccccc3)sc2-c2ccnc(NC3CCNCC3)n2)c1F)c1c(F)cccc1F` [compound 8], the IC50 in assay [1] is over 10000 nM.

`CN(C)c1nccc(-c2sc(-c3ccccc3)nc2-c2cccc(NS(=O)(=O)c3c(F)cccc3F)c2F)n1` [compound 37]: in assay [1], the IC50 was over 10000 nM. The same measure, in the same setting: the same measure for `Nc1nccc(-c2sc(-c3ccccc3)nc2-c2cccc(NS(=O)(=O)c3ccc4ocnc4c3)c2F)n1` [compound 57]: 251 nM; for `CCn1c(-c2ccccc2)nc(-c2cccc(NS(=O)(=O)c3c(F)cccc3F)c2F)c1-c1ccnc(N)n1` [compound 88]: over 10000 nM.
